Measured values: paper PMC11729419, “Thiol-Reactive or Redox-Active: Revising a Repurposing Screen Led to a New Invalidation Pipeline and Identified a True Noncovalent Inhibitor Against Papain-like Protease from SARS-CoV-2” (ACS Pharmacology & Translational Science, 2024)
Like-named read-outs stand apart in the source and are kept apart here.

Experiments:
[1] = biological target: SARS-CoV-2 PLpro-NAB (Severe acute respiratory syndrome coronavirus 2, UniProt P0DTD1); assay: biochemical; conditions: for HC PLpro-NAB inhibition [%] 20 μM triplicates 1 mM DTT buffer: hit confirmation, DMSO = 0%; for HC PLpro-NAB inhibition [%] 20 μM triplicates 1 mM DTT buffer / HP PLpro-NAB inhibition [%] 20 μM triplicates 1 mM L-cys buffer: average (SD), 20 μM PR619 = 100%; for HP PLpro-NAB inhibition [%] 20 μM triplicates 1 mM L-cys buffer / IC50: hit profiling
[2] = Table S1, 20 µM, DTT buffer
[3] = biological target: SARS-CoV-2 PLpro (Severe acute respiratory syndrome coronavirus 2, UniProt P0DTD1); format: biochemical; conditions: dose-response, ISG15 substrate
[4] = biological target: SARS-CoV-2 Mpro (Severe acute respiratory syndrome coronavirus 2, UniProt P0DTD1); format: biochemical; conditions: 10 μM; 1 mM DTT
[5] = system: USP14, USP7, cathepsin-L; format: biochemical, human; conditions: 10 μM; 1 mM DTT
Protocol: The assay was performed according to the manufacturer protocol, adapted to 384-well format with a final volume of 10 μL. […] 5 μL of cathepsin-L was added and incubated for 30 min at 25 °C. The enzymatic reaction was initiated by adding 5 μL substrate. […] Final assay concentrations of cathepsin-L and substrate were 0.01 ng/μL and 5 μM, respectively.
Plates were sealed and incubated for 30 min at 25 °C, followed by adding 5 μL/0.5 μM Ubiquitin-AMC (R&D Systems #U-550-050) substrate. The fluorescence signal was measured after 30 min of incubation (Ex/Em = 340/460; EnVision, PerkinElmer). […] The assay buffer is 50 mM Tris, 150 mM NaCl, 1 mM DTT, and 0.01% Tween 20 (pH 7.5).

[6] = system: SARS-CoV-2 BetaCoV/Belgium/GHB-03021/2020 strain; format: cell-based; conditions: 300 μM, 2 μM CP-100356

Structure (SMILES): C/C(=N\NC(=N)N)c1cc(NC(=O)CCCCCCCCC(=O)Nc2cc(/C(C)=N/NC(=N)N)cc(/C(C)=N/NC(=N)N)c2)cc(/C(C)=N/NC(=N)N)c1 [semapimod]
- Inhibition in L-cysteine buffer versus DTT buffer (dose-response) ([1]; 1 mM L-cysteine vs 1 mM DTT): did not show variations in inhibition potency or thermal stability
- Inhibitory activity on retest in 1 mM L-cysteine ([1]; 50% inhibition at 20 μM, 1 mM L-cysteine): retained their inhibitory activity
- HC PLpro-NAB inhibition [%] 20 μM triplicates 1 mM DTT buffer ([1]; 1 mM DTT buffer, listed as semapimod (EOS)): 140.16 (2.99) %
- HC PLpro-NAB inhibition [%] 20 μM triplicates 1 mM DTT buffer ([1]; 1 mM DTT buffer, listed as semapimod (FhG)): 118.80 (3.35) %
- HP PLpro-NAB inhibition [%] 20 μM triplicates 1 mM L-cys buffer ([1]; 1 mM L-cys buffer, listed as semapimod (EOS)): 50.46 (6.98) %
- HP PLpro-NAB inhibition [%] 20 μM triplicates 1 mM L-cys buffer ([1]; 1 mM L-cys buffer, listed as semapimod (FhG)): 51.28 (5.64) %
- IC50 ([1]; read-out: HP PLpro-NAB IC50 [μM] duplicates 1 mM L-cys buffer, 1 mM L-cys buffer, listed as semapimod (EOS)): > 20 µM
- IC50 ([1]; read-out: HP PLpro-NAB IC50 [μM] duplicates 1 mM L-cys buffer, 1 mM L-cys buffer, listed as semapimod (FhG)): 14.4 µM
- IC50 ([1]; read-out: HP PLpro-NAB IC50 [μM] triplicates 1 mM DTT buffer, 1 mM DTT buffer, listed as semapimod (EOS)): 1.21 µM
- IC50 ([1]; read-out: HP PLpro-NAB IC50 [μM] triplicates 1 mM DTT buffer, 1 mM DTT buffer, listed as semapimod (FhG)): 5.23 µM
- Interference inhibition [%] 20 µM based on product interference DTT BUFFER ([2]; listed as Semapimod (EOS)): 9.91%
- Interference inhibition [%] 20 µM based on product interference DTT BUFFER ([2]; listed as Semapimod (FhG)): -5.72%
- Potency against PLpro compared with PLpro-NAB [3]: activity exclusively against PLpro-NAB
- Preference PLpro over Mpro [4]: preferential inhibition of PLpro over Mpro
- Selectivity versus human USP14, USP7, cathepsin-L [5]: active across all of the tested targets

Structure (SMILES): CCS(=O)(=O)N1CCC([C@@H](C)n2c(C)c(C(=O)NCc3c(OC)cc(C)[nH]c3=O)c3ccccc32)CC1 [CPI-169]
- Interference inhibition [%] 20 µM based on product interference DTT BUFFER ([2]; listed as CPI-169 (EOS)): 9.34%
- Interference inhibition [%] 20 µM based on product interference DTT BUFFER ([2]; listed as CPI-169 (FhG)): -0.73%
- Spike RNA copy number [6]: reduced the Spike RNA copy number significantly
- Preference PLpro over Mpro [4]: preferential inhibition of PLpro over Mpro
